Assay results as given in publication PMC4502414, “Transforming berberine into its intestine-absorbable form by the gut microbiota” (Scientific Reports, 2015).

Experiments:
[1] = tested on: rat small intestinal bacteria (RSIB); assay: Conversion of BBR into dhBBR by rat small intestinal bacteria in vitro; assay type: in vitro ADME; conditions: BBR incubated with rat small intestine bacteria
Description: The small intestine contents from ten sacrificed SD rats were obtained and mixed with anaerobic medium to prepare the cultures. BBR was added into the incubation at final concentrations of 100, 50, and 10 μg/ml, and the reaction was continued for 6, 12 or 24 h. Levels of BBR, dhBBR and other BBR metabolites were determinedusing the LC-MS/MS 8040 and GC-MS instruments according to the above-mentioned method.

[2] = 72-h cumulative fecal excretion of BBR and dhBBR in pseudo germ-free (PGF) and conventional rats; assay type: in vivo, SD rats; conditions: oral BBR 200 mg/kg
Description: Male SD rats (180–200 g) were orally treated with cefadroxil (100 mg/kg), terramycin (300 mg/kg) and erythromycin (300 mg/kg) twice a day for 3 days, and pharmacokinetic examination was performed 2 days after final administration. The colon contents of the rats were collected on the first and third days after the final treatment with antibiotics, and the germ-free status was confirmed by culturing fecal samples aerobically on a nutrient agar culture medium. Fecal samples from non-antibiotic-exposed rats served as control samples. Before oral administration of a single dose of BBR (200 mg/kg), the PGF rats were fasted overnight with free access to water. […] The samples were stored at −20 °C for further analysis.

[3] = target: T1, monoamine oxidase-B (MAO-B) (Homo sapiens, UniProt P27338); conditions: cell-free system, dhBBR 100 μM, 30 min
T1 sequence (P27338 1-520): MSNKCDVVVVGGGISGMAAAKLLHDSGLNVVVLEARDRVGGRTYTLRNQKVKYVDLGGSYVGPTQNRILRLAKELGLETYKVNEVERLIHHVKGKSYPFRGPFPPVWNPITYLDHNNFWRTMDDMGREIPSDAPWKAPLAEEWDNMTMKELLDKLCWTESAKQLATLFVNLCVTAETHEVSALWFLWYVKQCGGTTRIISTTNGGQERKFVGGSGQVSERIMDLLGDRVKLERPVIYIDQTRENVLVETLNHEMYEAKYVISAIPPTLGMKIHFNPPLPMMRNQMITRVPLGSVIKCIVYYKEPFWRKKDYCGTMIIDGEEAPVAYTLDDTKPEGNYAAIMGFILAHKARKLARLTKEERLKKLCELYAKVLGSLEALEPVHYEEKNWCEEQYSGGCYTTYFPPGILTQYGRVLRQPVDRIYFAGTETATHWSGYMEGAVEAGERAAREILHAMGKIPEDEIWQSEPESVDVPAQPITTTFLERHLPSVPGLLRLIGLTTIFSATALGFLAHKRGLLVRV

[4] = Effect of heat inactivation and vitamin C on dhBBR-to-BBR transformation in rat small intestine homogenate; assay type: in vitro ADME; conditions: homogenate boiled for 2 min
Description: The rats (n = 3) were sacrificed to obtain fresh small intestine homogenate. The homogenate was then boiled for 2 min to inactivate all of the enzymes. After pre-incubation at 37 °C for 2 min, 5 μl of dhBBR (10 mM, dissolved in DMSO) was added into the inactivated homogenate, and fresh homogenate (active one) was used as a reference. The sample was mixed thoroughly and centrifuged at 16,000 g for 5 min. The supernatant was transferred into new tubes, treated with 500 μl of acetonitrile, and then centrifuged. Twenty-microliter aliquots were used for the HPLC analysis.
To examine the oxidative reaction, 100 μl of vitamin C was pre-incubated with the inactivated homogenate; the final concentrations of vitamin C were 95, 9.5 and 0.95 mM. The superoxide anion in the sample was detected with an O2^− ELISA kit (Beijing Biolab Co., Ltd., Beijing, China; lot: 201404) following the manufacturer’s instructions.

MAO-B = target: T2, MAO-B (Rattus norvegicus, UniProt P19643); conditions: intestinal homogenate, 30 min, no inhibitor
T2 sequence (P19643 1-520): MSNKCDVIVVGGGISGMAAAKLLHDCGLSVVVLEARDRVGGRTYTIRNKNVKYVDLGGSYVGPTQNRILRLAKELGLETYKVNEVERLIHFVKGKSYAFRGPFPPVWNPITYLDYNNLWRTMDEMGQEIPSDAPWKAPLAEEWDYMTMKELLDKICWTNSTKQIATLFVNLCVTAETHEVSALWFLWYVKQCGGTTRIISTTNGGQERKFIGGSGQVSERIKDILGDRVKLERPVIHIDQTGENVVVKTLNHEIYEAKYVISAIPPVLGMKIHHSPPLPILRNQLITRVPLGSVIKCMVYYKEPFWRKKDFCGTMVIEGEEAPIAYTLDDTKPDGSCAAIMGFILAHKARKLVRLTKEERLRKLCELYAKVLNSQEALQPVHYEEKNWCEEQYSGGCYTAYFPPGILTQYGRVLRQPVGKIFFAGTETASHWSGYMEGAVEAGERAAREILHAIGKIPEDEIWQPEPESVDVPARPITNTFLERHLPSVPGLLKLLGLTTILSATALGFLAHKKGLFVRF

[5] = Transformation of dhBBR in pooled human intestinal microsomes (HIMs); assay type: in vitro ADME
Description: The mixture was incubated at 37 °C with exposure to air for 2, 5 and 10 min and was terminated by the addition of 200 μl of ice-cold acetonitrile. Then, 20 μl of the internal standard was added to the mixture, and the mixture was centrifuged at 14,000 g for 5 min. Fifty microliters of the supernatant was injected into the HPLC instrument for analysis. The control samples were incubated under the same conditions but without HIMs.

[6] = tested on: rat large intestinal bacteria (RLIB); assay: Conversion of BBR into dhBBR by rat large intestinal bacteria in vitro; assay type: in vitro ADME; conditions: BBR incubated with rat large intestinal bacteria
Description: The method was reported previously. Briefly, colon contents from six rats were pooled, and 5 g of the sample was transferred into a flask containing the anaerobic medium (100 ml). After thorough mixing, the cultures (which contained intestinal bacteria and anaerobic medium) were pre-incubated under anaerobic conditions with a N2 atmosphere at 37 °C for 60 min. Rutin (10 μl, 1.0 mg/ml in methanol) was used as a positive reference for intestinal metabolism.
Ten microliters of BBR at different concentrations was added into the fresh human or rat intestinal bacteria cultures (990 μl), with methanol (10 μl) as the negative control. The final concentrations of BBR in the incubation system were 100, 10, and 5 μg/ml. The cultures were incubated at 37 °C for 72 h in the presence or absence of human or rat intestinal bacteria.
After termination of the reaction with acetonitrile (1 ml), 50 μl of the internal standard (tetrahydropalmatine, 2.0 mg/ml in methanol) was added into the BBR samples, which were then mixed for 30 sec and centrifuged at 7,500 g for 15 min. The supernatant was dried under nitrogen flow at room temperature, and the residue was dissolved in 100 μl of methanol and centrifuged at 7,500 g for 15 min. The metabolites were analyzed by LC/MS^n-IT-TOF using a previously reported method. […]

Q: What does the source list for `COc1ccc2c(c1OC)CN1CCc3cc4c(cc3C1=C2)OCO4` [dhBBR, dihydroberberine]?
A: incubation time until dhBBR became detectable [1]: ≤ 6 h; 72-h-cumulative dhBBR in feces, % of the giving amount of BBR ([2]; PGF rats): 6.09%; 72-h-cumulative dhBBR in feces, % of the giving amount of BBR ([2]; untreated (conventional) rats): 18.21%; reversion from dhBBR to BBR attributable to MAO-B [3]: approximately 10%; effect of heat inactivation of homogenate on dhBBR-to-BBR reversion [4]: did not reduce the dhBBR-to-BBR reversion; dhBBR-to-BBR reversion (MAO-B): complete; dhBBR-to-BBR reversion [5]: very rapidly; incubation time until dhBBR became detectable [6]: ≤ 24 h
